Measurements from US20180318199A1, “Pharmaceutical Composition Having Anti-Aging Properties against High-Glucose” (TAIWAN LEADER BIOTECH CORP., priority 2017, published 2018).

Experiments:
HNDFs = assay: SA-β-gal senescence assay in HG-induced HNDFs; assay type: cell-based, human; details: ANM 10 μM or RES + HG, 72 h
Protocol: Next, the protective effects of antcins on HG-induced HNDF senescence are examined. In FIG. 2B, cells were incubated with ANA (10 μM), ANH (10 μM) and ANM (10 μM) in the presence of HG (30 mM) for 72 h. Cellular senescence is determined by SA-β-gal activity. […] After cells are co-incubated with HG and antcins (ANA, ANH and ANM) for 72 h, senescence is measured by SA-β-gal assay.
Therefore, in order to examine whether the ROS inhibitory effect may be extended to suppress HG-induced senescence, HG-induced senescenece eliminated by ANM is examined. In FIG. 4B, HNDFs are incubated with ANM (10 μM) or NAC (100 μM) in the presence or absence of HG (30 mM) for 72 h. Cellular senescence is determined by SA-β-gal assay. […] As is shown, cells are co-incubated with HG and ANM or NAC for 72 h.
Senescence-associated β-galactosidase (SA-β-gal) activity is determined in formaldehyde-fixed histochemical staining kit according to the manufacturer's instructions (Cell Signaling Technology, Danvers, Calif.). Briefly, cells are grown in 6-well plates at a density of 5×10^4 cells/well, and incubated with HG or test samples for 48 h (HUVECs) or 72 h (HNDFs). After incubation, cells are stained with SA-β-gal staining solution at pH 6.0 overnight and then the development of blue staining is observed and photographed under a bright-field microscope (Motic Electric Group, Xiamen, P.R. China).

[1] = test system: SIRT-1, SIRT-3 and SIRT-6; assay: RT-PCR/Q-PCR of SIRT genes in HNDFs; assay type: cell-based, human; details: RES, 72 h, no HG
Text: As shown in the figures, to determine whether ANM regulates HNDF senescence through a SIRT-1-mediated pathway, expression levels of SIRT genes SIRT-1, SIRT-3 and SIRT-6 are is examined.
Total RNA is extracted and subjected to Q-PCR analysis to monitor SIRT-1, SIRT-3 and SIRT-6 expression. Relative mRNA levels are normalized by β-actin mRNA. Previous studies have shown that exposure of endothelial cells to HG rapidly decreases levels of expression of SIRT genes.
Total RNA is extracted from cultured HNDFs using Trizol Reagent (Thermo Fisher Scientific). Q-PCR analysis is performed using Applied Biosystems detection instruments and software. Forward and reverse primers (10 μM), and the working solution SYBR green, is used as a PCR master mix, under the following conditions: 96° C. for 3 minutes followed by 40 cycles at 96° C. for 1 minute, 50° C. for 30 seconds and 72° C. for 90 seconds. GAPDH is used as an internal standard to control for variability in amplification because of differences in starting mRNA concentrations. The copy number of each transcript is calculated as the relative copy number normalized by GAPDH copy number.

SIRT-1, SIRT-3, SIRT-6 = assay: Western blot of SIRT proteins and phos-SIRT-1 in HNDFs; assay type: cell-based, human; details: ANM or RES + HG, 72 h
Protocol: Total cell lysate is extracted and subjected to western blot analysis to monitor SIRT-1, SIRT-3, SIRT-6 protein levels.
The protein expression levels of SIRT-1, SIRT-6, p21^CIP1, SMP30, p53, FoxO and acetylation of p53 and FoxO1 are determined by western blot analysis.
To further understand the regulation of SIRT-1 by ANM, the effect of ANM on SIRT-1 activation and protein stability is examined under hyperglycemic conditions. In FIG. 7I, cells are incubated with JNK/SAPK or p38 MAPK inhibitors SP600125 (SP, 30 μM) and SB203580 (SB, 30 μM) in the presence of HG for 72 h. The protein expression levels of phos-SIRT-1 and SIRT-1 are determined by western blotting. Results are expressed as mean±S.E.M of three independent experiments. Statistical significance is set at ^ϕP<0.05 as compared to NG vs. HG and *P<0.05 as compared to HG vs. samples. Previous studies have shown that hyperphosphorylation of SIRT-1 at serine 47 (Ser47) is correlated with enhanced endothelial senescence. In addition, persistent activation of JNK1/2 by multiple factors including hyperglycemia induces extensive SIRT-1 proteasome degradation followed by phosphorylation at Ser47. […] Therefore, it is hypothesized that ANM-mediated suppression of JNK1/2 and p38 MAPK activation may have a functional role in the stability of SIRT-1 protein.
(§1) Cells are lysed by either RIPA lysis buffer or nuclear and cytoplasmic extraction reagents (Thermo Fisher Scientific). Protein concentrations are determined by Bio-Rad protein assay reagent (Bio-Rad Laboratories, Hercules, Calif.). Equal amounts of protein samples (60 μg) are separated by 7-12% SDS-PAGE and the separated proteins are transferred onto polyvinylidene […] (PVDC) membrane overnight. The transferred protein membranes are blocked with 5% non-fat dried milk for 30 min, followed by incubation with specific primary antibodies overnight, and either horseradish peroxidase-conjugated goat anti-rabbit or anti-mouse antibodies for 2 h. The blots are detected using VL Chemi-Smart 3000 (Viogene Biotek, Sunnyvale, Calif.) with the enhanced chemiluminescence (ECL) western blotting reagent (Millipore, Billerica, Mass.).

wild-type C. elegans = assay: C. elegans lifespan assay; assay type: in vivo, Caenorhabditis elegans; details: ANM 10 μM or RES 438 μM vs control
Protocol: It has been well documented that high glucose levels decrease the life span of C. elegans by increasing ROS formation and advance glycation end-product modification of mitochondrial proteins. Therefore, it is further investigated whether ANM has a protective effect against hyperglycemia-induced oxidative stress as well as anti-aging effects. Worms are incubated with high glucose (50 mM) with or without ANM […], and controlled for life span evaluation. In FIG. 8B, effect of ANM on the life span of C. elegans under hyperglycemic condition is examined. Age synchronized L1 larvae are transfected to NGM plates which contain HG (50 mM) with or without ANM (10 μM) and worms are developed to adulthood. The survival rate is scored everyday and is expressed as a percentage of survival. […] Results are expressed as mean±S.E.M of three independent experiments. Statistical significance is set at ^ϕP<0.05 as compared to control vs. HG, *P<0.05 as compared to HG vs. HG+sample and ̂P<0.05 as compared to control vs. samples.
Control worms are treated with 0.01% DMSO. All worms are kept 20° C. to develop adulthood. After 6 days, worms are transferred to plates containing glucose are applicable. Surviving and dead animals are counted daily (starting from the first day of adulthood) until all worms had died. […] Worms suffering from internal hatch (a defect in egg-laying) and those that crawled off the NGM plate are not included in the life-span assay. During the reproductive period, adult worms are transferred to fresh NGM plates every day during the progeny production period and then every other day thereafter. Life span assay result is obtained from three independent assays.

HO-1 and NQO-1 = assay: Western blot of HO-1 and NQO-1 in HUVECs; assay type: cell-based, human; details: ANM 10 μM or RES 5 μM + HG
Protocol: The intracellular ROS level is quantified by utilizing DCFH-DA assay. […] However, treatment of HUVECs with ANM resulted reduced ROS levels (6.1-fold), compared with HUVECs in HG that are not treated with ANM. In addition, in FIG. 9G, western blot analysis is performed to determine the protein expression levels of HO-1 and NQO-1.
as §1

Structure (SMILES): Oc1ccc(C=Cc2cc(O)cc(O)c2)cc1 [RES, resveratrol, reference compound]
- SA-β-gal activity, SIRT-1 siRNA transfected cells (HNDFs): remains partially elevated
- SIRT-6 level (RT-PCR) [1]: remarkable increase
- HG-induced SIRT-1 phosphorylation at Ser47 (SIRT-1, SIRT-3, SIRT-6): significantly attenuates
- life span of C. elegans under normal condition (wild-type C. elegans): highly comparable
- HO-1 expression in HUVECs in HG (HO-1 and NQO-1): significantly increase
